This note sets out measurements from ChEMBL document CHEMBL1148505, “Inhibition of Plasmodium falciparum fatty acid biosynthesis: evaluation of FabG, FabZ, and FabI as drug targets for flavonoids” (J Med Chem, 2006).

SMILES strings stand for the structures.

In one test the target is T1, Fatty acid synthase (Plasmodium falciparum, UniProt Q965D7).
T1 sequence (Q965D7 whole entry): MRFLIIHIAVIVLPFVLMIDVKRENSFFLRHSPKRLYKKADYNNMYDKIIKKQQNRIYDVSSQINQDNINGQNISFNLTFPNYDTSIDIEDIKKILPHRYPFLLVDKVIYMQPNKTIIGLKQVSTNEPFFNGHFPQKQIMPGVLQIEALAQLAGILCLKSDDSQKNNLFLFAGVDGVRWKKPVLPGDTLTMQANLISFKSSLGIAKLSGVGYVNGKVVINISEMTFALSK
Nature of the test: Inhibition of FabZ.

The target in test [1] is T2, Enoyl-acyl-carrier protein reductase (Plasmodium falciparum, UniProt Q965D5).
T2 sequence (Q965D5 whole entry): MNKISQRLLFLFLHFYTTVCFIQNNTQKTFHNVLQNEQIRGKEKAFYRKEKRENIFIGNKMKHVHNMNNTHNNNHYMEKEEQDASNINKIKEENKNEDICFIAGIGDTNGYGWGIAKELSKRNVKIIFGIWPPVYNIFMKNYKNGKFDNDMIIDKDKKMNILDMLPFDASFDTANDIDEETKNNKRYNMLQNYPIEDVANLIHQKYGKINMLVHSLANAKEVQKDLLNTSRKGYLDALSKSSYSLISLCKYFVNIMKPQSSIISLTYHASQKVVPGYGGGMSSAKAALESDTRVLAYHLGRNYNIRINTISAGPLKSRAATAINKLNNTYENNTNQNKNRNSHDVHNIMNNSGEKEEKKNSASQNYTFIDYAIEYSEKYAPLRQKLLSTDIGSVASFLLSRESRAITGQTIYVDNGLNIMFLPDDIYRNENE
The test is described as follows: Inhibition of FabI.

The target of test [2] is T3, 3-oxoacyl-acyl-carrier protein reductase (Plasmodium falciparum, UniProt Q965D6).
T3 sequence (Q965D6 whole entry): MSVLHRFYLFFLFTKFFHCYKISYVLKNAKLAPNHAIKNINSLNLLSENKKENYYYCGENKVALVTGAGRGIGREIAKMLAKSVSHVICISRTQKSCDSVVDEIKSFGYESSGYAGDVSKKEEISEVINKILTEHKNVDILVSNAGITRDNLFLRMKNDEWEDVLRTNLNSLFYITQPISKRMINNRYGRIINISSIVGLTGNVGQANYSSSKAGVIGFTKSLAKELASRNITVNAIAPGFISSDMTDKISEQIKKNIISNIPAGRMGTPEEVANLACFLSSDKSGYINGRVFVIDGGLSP
Nature of the test: Inhibition of FabG.

In test [3] the test system is Plasmodium falciparum. Nature of the test: Antiplasmodial activity against chloroquine-sensitive Plasmodium falciparum NF54. Type of test: functional, organism-based.
Test [4] concerns Plasmodium falciparum. Nature of the test: Antiplasmodial activity against chloroquine-resistant Plasmodium falciparum K1. In kind it is functional, organism-based.
Test [5] deals with T3, 3-oxoacyl-acyl-carrier protein reductase. The test is described as follows: Inhibition of FabG in presence of acetoacetyl-CoA.
The target is the same in test [6]. Nature of the test: Inhibition of FabG in presence of NADPH.

`O=c1cc(-c2ccc(O)c(O)c2)oc2cc(O)cc(O)c12` [LUTEOLIN]: the IC50 against Fatty acid synthase turned out to be 5 µM; in test [1], 2 µM; in test [2] it was 4 µM; in the test on Plasmodium falciparum [3], 10.7 µM; in the test on Plasmodium falciparum [4], 9.6 µM. The Ki is 11.5 µM at Fatty acid synthase, 2.1 µM in test [1], 1.8 µM in test [5] and 0.8 µM in test [6].

With `O=c1c(O)c(-c2ccc(O)c(O)c2)oc2cc(O)cc(O)c12` [QUERCETIN], the IC50 on Fatty acid synthase was found to be 1.5 µM; in test [1], 1.5 µM; in test [2], 5.4 µM; with Plasmodium falciparum [3], 10 µM; in the test on Plasmodium falciparum [4], 8.9 µM.

On to `O=c1c(O)c(-c2cc(O)c(O)c(O)c2)oc2cc(O)cc(O)c12` [MYRICETIN], for which the IC50 turned out to be 2 µM against Fatty acid synthase; 0.4 µM in test [1]; 14 µM in test [2]; 57.3 µM in the test on Plasmodium falciparum [3]; 12.9 µM in the test with Plasmodium falciparum [4].

On to `O=c1c(O)c(-c2ccc(O)cc2O)oc2cc(O)cc(O)c12` [MORIN], for which the IC50 is 8 µM on Fatty acid synthase; 5 µM in test [1]; 2.3 µM in test [2]; 110 µM in the test with Plasmodium falciparum [3]; 16.1 µM in the test with Plasmodium falciparum [4].

`O=C(O[C@@H]1Cc2c(O)cc(O)cc2O[C@H]1c1ccc(O)c(O)c1)c1cc(O)c(O)c(O)c1` [(-)-CATECHINGALLATE]: the IC50 was 0.4 µM against Fatty acid synthase; 0.3 µM in test [1]; 1 µM in test [2]; 3.2 µM in the test on Plasmodium falciparum [3]; 0.4 µM in the test with Plasmodium falciparum [4]. Also, the Ki at Fatty acid synthase turned out to be 2.8 µM; in test [1], 0.04 µM; in test [5] it was 6.4 µM; in test [6], 2.8 µM.
